The values that follow come from article PMC3857224, “Inhibition of DNA Glycosylases via Small Molecule Purine Analogs” (PLoS ONE, 2013).

One data set relates to NEIL1-depleted cells. Set-up: method as in PMID 21131780. The conditions noted are these: minimally toxic doses, siRNA NEIL1 depletion; cited from earlier work.
The next data set has as its system duplex DNA ladder. The data set can be described thus: DNA ladder gel-shift intercalation assay. Type of data set: binding. The conditions noted are these: 40 µM compound, 20 min room temperature. On the procedure: To test whether potential inhibitors could exert their inhibitory effect via DNA intercalation, 10 µL reactions containing 500 ng of a 100-bp DNA ladder were incubated at room temperature for 20 min with 40 µM of the selected compound. Ellipticine, a compound that is known to intercalate into duplex DNA was used as a control compound at a final concentration of 40 µM. Samples were resolved on a 1% agarose gel in 0.5X Tris-borate EDTA running buffer at 120 V for 2 h. Shifts in gel mobility were visualized by post staining with ethidium bromide and images were captured on a ChemiImager 5500 (Protein Simple, Santa Clara, CA).
To assay whether these inhibitors could block NEIL1 activity through DNA intercalation, a DNA ladder gel-shift assay was performed, with ellipticine serving as a positive control. A duplex DNA ladder was incubated with each inhibitor, and analyzed for electrophoretic mobility shift.

In the next data set the target is T1, NEIL1 (Homo sapiens, UniProt Q96FI4).
T1 construct: made in house
T1 sequence (Q96FI4 whole entry): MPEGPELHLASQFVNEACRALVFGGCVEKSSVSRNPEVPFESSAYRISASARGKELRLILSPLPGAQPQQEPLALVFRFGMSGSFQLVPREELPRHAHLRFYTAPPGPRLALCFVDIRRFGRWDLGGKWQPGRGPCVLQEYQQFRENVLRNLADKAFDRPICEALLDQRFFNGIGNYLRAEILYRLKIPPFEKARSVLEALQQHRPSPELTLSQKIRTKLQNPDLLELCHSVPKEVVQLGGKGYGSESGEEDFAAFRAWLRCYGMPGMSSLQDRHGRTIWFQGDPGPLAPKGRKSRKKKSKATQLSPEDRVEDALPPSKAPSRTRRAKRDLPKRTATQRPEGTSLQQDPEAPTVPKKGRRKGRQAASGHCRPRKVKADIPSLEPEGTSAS
Kind of data set: qHTS fluorogenic glycosylase/AP lyase assay, 1536-well, Sp/Gh substrate. Type of data set: biochemical. The conditions noted are these: 5 concentrations. The procedure:
The fluorogenic assay was miniaturized to 4 µL in 1536-well black solid plates by optimization of the enzyme and Sp/Gh substrate concentrations. Briefly, 3 µL of 25 nM NEIL1 were dispensed into each well of a 1536-well plate (except buffer in columns 3 and 4 as a negative control). Compounds (DMSO solutions) and control (DMSO only) (23 nL) were transferred to the plate via Kalypsys pintool. The plate was incubated for 15 min at room temperature, and then 1 µL of the Sp/Gh-containing DNA substrate (75 nM final concentration) was added to start the reaction. The plate was immediately transferred into the ViewLux reader for the kinetic fluorescence read. Initial rate data were normalized against uninhibited and no-enzyme controls and the resulting percent activities as a function of compound concentration were fitted using the Hill equation.
Having established the general principle for a glycosylase screening assay, further assay development was undertaken to enable HTS in which the reaction volumes were reduced by 5-fold to a total of 4 µL. Initially, the library of pharmacologically active compounds (LOPAC^1280) was screened for inhibitors of NEIL1 as a determination of the feasibility of this high-throughput method. […] All compounds were screened at 5 different concentrations that allowed for the initial estimation of inhibitory potency (IC50) values, as well as an evaluation of the shape of the response curves. In addition to the anticipated inhibitors (known DNA intercalators, such as ellipticine (IC50 = 2 µM)) and other small molecules that have been previously established to be promiscuous inhibitors (such as aurintricarboxylic acid (IC50<1 µM)), one interesting hit from this screen was CGP-74514A (NCGC ID is NCGC00015229) (Figure 5A). CGP-74514A is a known small molecule inhibitor of Cdk1 in which the structure of this molecule is based on a purine ring backbone.

As for `Cc1nc2ccc(CN(C)c3ccc(C(=O)N[C@@H](CCC(=O)O)C(=O)O)s3)cc2c(=O)[nH]1` [RTX, raltitrexed], the “increased cytotoxicity in NEIL1-depleted cells” value in the data set on NEIL1-depleted cells is on record as 9 fold.
On to `Cc1c2ccncc2c(C)c2c1[nH]c1ccccc12` [ellipticine, reference compound], for which the “shift in electrophoretic mobility of DNA ladder (intercalation)” value with duplex DNA ladder is “major reduction in the electrophoretic mobility”. This compound also came in with an IC50 against NEIL1 of 2000 nM.
